Here are results for 7 molecules from patent publication US4277472A, “3,6-Disubstituted-5,7-(lower alkano)-5,6,7,8-tetrahydropyrido(4,3-C)pyridazines; their intermediates, preparation, antihypertensive use and compositions” (Byk Gulden Lomberg Chemische Fabrik GmbH, priority 1978, dated 1981).

The nature of data set [1]: acute oral toxicity, LD50, mouse. More on the design: species or system mouse (NMRI, female). To be noted: in vivo, per os, single administration, mice, N = 5/dose, 14 days observation. The procedure: The toxicity investigations were carried out on female NMRI mice (body weight from 22 to 26 g). The animals (5 animals per dose) receive food and water ad libitum. Different doses of the substances are administered orally. The duration of observation is 14 days. The LD50, i.e. the dose at which 50 percent of the animals die, is determined graphically from the dose effect curve.
(§1) Table I reproduces for the representatives of the compounds according to the invention the percentage lowering of the blood pressure after oral administration in the rat and the lethal effect after oral administration in the mouse.
and toxicity (per os; LD50) in mice (N = 5/dose)

In data set [2] the test system is blood pressure of genetically-hypertensive rats. As to the kind of experiment: antihypertensive effect in awake genetically-hypertensive rats, oral, once daily on two consecutive days. It is filed as in vivo, rat (Kyoto strain). To be noted: for relation between percentage change of the blood pressure (BP) and the applied dose / Th. E. (therapeutic effectiveness) [Serial No. 3 = 1.0]: 24-hour value of the 2nd day; for relation between percentage change of the blood pressure (BP) and the applied dose: dose in μmole/kg; for Th. E. (therapeutic effectiveness) [Serial No. 3 = 1.0]: relative to hydralazine = 1.0. The procedure: In order to determine the anti-hypertensive effect, the compounds or mixtures are administered once daily by means of an oesophageal sound in the stated doses on two consecutive days to, in each case, 8 rats (Kyoto strain) with genetically-caused hypertension. The blood pressure was measured in each case 6 and 24 hours after administration of the substance.
(§2) The measurement of the systolic blood pressure is effected with the aid of an inflatable cuff which is placed around the tail root and on which cuff there are arranged distally annularly 3 piezo-electric crystals (at a distance of 120°) for registering the pulse waves. The determination of the blood pressure is effected through inflation of the cuff and graphic recording of the pulse amplitude [analogously to H. Friebel and E. Vreden, Arch. exper. Path. u. Pharmakol., 232, 419 (1958)]. The animals were kept in an ambience of, and the experiments were carried out at from 22° to 24° C. and from 50 to 60 percent atmospheric humidity. In order to accustom the animals to the measuring process, a measurement was effected on the animals in each case 2 to 3 times daily for three days. For this purpose, as in the subsequent experiments, the rats were put into tunnel-shaped wire cages; one narrow side of the cages is slidable, the other has an opening for taking the tail through. In order to ensure a better blood flow through the tail artery during the measurement, the tails are irradiated for from 5 to 10 minutes with a red light lamp (150 watts) (distance: animal-lamp=50 cm). The air temperature immediately ambient to the tail is from 30° to 33° C. The body of the animals is covered and thus protected from direct irradiation.
as §1
% Change of blood pressure (BP) in genetically-hypertensive rats after
single daily application per os on two consecutive days (N = 8/dose)

Data set [3] shares this test system. As to the kind of experiment: lowering of blood pressure of genetically-hypertensive rats, oral, once daily on 10 consecutive days. Format: in vivo, rat (Kyoto strain). To be noted: 6 h after application. The procedure: as §2
In Table III there is represented the lowering of the blood pressure of genetically-hypertensive rats in the case of oral application of 3-hydrazino-5,7-propano-5,6,7,8-tetrahydro-6-pyrido[4,3-c]pyridazine carboxylic acid ethyl ester fumarate. In each case 8 animals received the stated dose once daily on 10 consecutive days.
Lowering of the blood pressure of genetically-hypertensive rats
(in mm Hg) in the case of administration of different doses of No. 4
(in mg/kg rat), measured on 10 consecutive days (6 hours after
application in each case).
Doses: a = 1.25 mg/kg; b = 2.5 mg/kg; c = 5.0 mg/kg; d = 10.0 mg/kg.

The mark [4] stands for this setting: 5 mg/kg per os on 2nd day (half of original dose).
The mark [5] stands for this setting: 5 mg/kg per os on 2nd day (half of original dose), 24 h.

As a reminder, the LD50 is the dose at which mortality reaches 50%.

Molecules are shown by their SMILES.

The molecule `CCOC(=O)N1C2CCCC1c1cc(NN)nnc1C2.O=C(O)/C=C/C(=O)O` (stereo not shown) [Serial No. 4, 3-hydrazino-5,7-propano-5,6,7,8-tetrahydro-6-pyrido[4,3-c]pyridazine carboxylic acid ethyl ester fumarate] showed an LD50 at 336 h in data set [1] of 400 mg/kg. Besides, the “BP (% change), 1st day, 6 h” value in data set [2] (2.5 mg/kg per os) is recorded as -9.0%. Further, the “BP (% change), 1st day, 24 h” value in data set [2] (2.5 mg/kg per os, 24 h) is reported as -11.8%. The “BP (% change), 2nd day, 6 h” value in data set [2] (2.5 mg/kg per os, 2nd day) is on record as -15.9%. Moreover, the “BP (% change) 2nd day, 24 h” value in data set [2] (2.5 mg/kg per os, 2nd day, 24 h) is given as -17.1%; in data set [2] (Table II, dose 9.0 μmole/kg), -17.1%. The “relation between percentage change of the blood pressure (BP) and the applied dose” value (“relation between percentage change” below) in data set [2] is recorded as 1.90. In addition, the “Th. E. (therapeutic effectiveness) [Serial No. 3 = 1.0]” value in data set [2] amounted to 38.9. Further, the “Lowering of the blood pressure” value in data set [3] (day 1, a = 1.25 mg/kg oral) is reported as 25.0 mm Hg; in data set [3] (day 1, b = 2.5 mg/kg oral), 35.0 mm Hg; in data set [3] (day 1, c = 5.0 mg/kg oral) it was 48.0 mm Hg; in data set [3] (day 1, d = 10.0 mg/kg oral), 58.0 mm Hg; in data set [3] (day 2, a = 1.25 mg/kg oral) it was 14.0 mm Hg; in data set [3] (day 2, b = 2.5 mg/kg oral), 59.0 mm Hg. Besides, the “Lowering of the blood pressure” value in data set [3] (day 2, c = 5.0 mg/kg oral) was found to be 67.0 mm Hg; in data set [3] (day 2, d = 10.0 mg/kg oral), 77.5 mm Hg; in data set [3] (day 3, a = 1.25 mg/kg oral), 20.0 mm Hg; in data set [3] (day 3, b = 2.5 mg/kg oral) it was 44.0 mm Hg; in data set [3] (day 3, c = 5.0 mg/kg oral), 53.0 mm Hg; in data set [3] (day 3, d = 10.0 mg/kg oral), 66.0 mm Hg. Besides, the “Lowering of the blood pressure” value in data set [3] (day 4, a = 1.25 mg/kg oral) is on record as 21.0 mm Hg; in data set [3] (day 4, b = 2.5 mg/kg oral), 67.0 mm Hg; in data set [3] (day 4, c = 5.0 mg/kg oral), 72.0 mm Hg; in data set [3] (day 4, d = 10.0 mg/kg oral), 74.0 mm Hg; in data set [3] (day 7, a = 1.25 mg/kg oral), 27.0 mm Hg; in data set [3] (day 7, b = 2.5 mg/kg oral) it was 53.0 mm Hg. For the same molecule, the “Lowering of the blood pressure” value in data set [3] (day 7, c = 5.0 mg/kg oral) was found to be 59.0 mm Hg; in data set [3] (day 7, d = 10.0 mg/kg oral) it was 69.0 mm Hg; in data set [3] (day 8, a = 1.25 mg/kg oral), 21.0 mm Hg; in data set [3] (day 8, b = 2.5 mg/kg oral), 66.0 mm Hg; in data set [3] (day 8, c = 5.0 mg/kg oral), 67.0 mm Hg; in data set [3] (day 8, d = 10.0 mg/kg oral) it was 66.0 mm Hg. Further, the “Lowering of the blood pressure” value is on record as 64.0 mm Hg in data set [3] (day 9, b = 2.5 mg/kg oral); 63.0 mm Hg in data set [3] (day 9, c = 5.0 mg/kg oral); 61.0 mm Hg in data set [3] (day 9, d = 10.0 mg/kg oral); 71.0 mm Hg in data set [3] (day 10, b = 2.5 mg/kg oral); 66.0 mm Hg in data set [3] (day 10, c = 5.0 mg/kg oral); 63.0 mm Hg in data set [3] (day 10, d = 10.0 mg/kg oral).

Regarding `CCOC(=O)N1C2CCCC1c1cc(NN)nnc1C2` (stereo not shown) [3-hydrazino-5,7-propano-5,6,7,8-tetrahydro-6-pyrido[4,3-c]pyridazine carboxylic acid ethyl ester], the “anti-hypertensive effectiveness and duration of action, in words” value in data set [2] (awake genetically-hypertensive rats, compared with hydralazine and known compounds) was “considerably higher anti-hypertensive effectiveness and longer duration of action than hydralazine”.

With `CC(C)=NNc1cc2c(nn1)CC1CCCC2N1C(=O)c1ccccc1` (stereo not shown) [Serial No. 5, 6-benzoyl-3-isopropylidenehydrazino-5,7-propano-5,6,7,8-tetrahydropyrido[4,3-c]pyridazine], the LD50 at 336 h in data set [1] came to 510 mg/kg. Besides, in data set [2] (setting [4]), the “BP (% change), 2nd day, 6 h” value was -15.2%. Also, in data set [2] (setting [5]), the “BP (% change) 2nd day, 24 h” value is recorded as -12.8%. For the same molecule, the “BP (% change), 1st day, 6 h” value in data set [2] (10 mg/kg per os) is recorded as -20.1%. For the same molecule, the “BP (% change), 1st day, 24 h” value in data set [2] (10 mg/kg per os, 24 h) is on record as -4.4%. Further, in data set [2], the “relation between percentage change” value was 0.87; the “Th. E. (therapeutic effectiveness) [Serial No. 3 = 1.0]” value came to 17.8. In data set [2] (Table II, dose 14.3 μmole/kg), the “BP (% change) 2nd day, 24 h” value is listed as -12.8%.

Regarding `CCOC(=O)N1CCc2nnc(NN)cc2C1` [Serial No. 1, 3-hydrazino-5,6,7,8-tetrahydro-6-pyrido[4,3-c]pyridazine carboxylic acid ethyl ester, reference compound], the LD50 at 336 h in data set [1] is 340 mg/kg. For the same molecule, the “BP (% change), 2nd day, 6 h” value in data set [2] (setting [4]) is given as -17.5%. In data set [2] (10 mg/kg per os), the “BP (% change), 1st day, 6 h” value is listed as -24.5%. The “BP (% change), 1st day, 24 h” value in data set [2] (10 mg/kg per os, 24 h) is -6.0%. Also, in data set [2], the “relation between percentage change” value is 0.404; the “Th. E. (therapeutic effectiveness) [Serial No. 3 = 1.0]” value was found to be 8.3. The “BP (% change) 2nd day, 24 h” value in data set [2] (Table II, dose 21.05 μmole/kg) is -8.5%.

On to `CCOC(=O)N1C2CCC1c1cc(NN=C(C)C)nnc1C2` (stereo not shown) [Serial No. 6, 3-isopropylidenehydrazino-5,7-ethano-5,6,7,8-tetrahydro-6-pyrido[4,3-c]-pyridazine carboxylic acid ethyl ester], for which, in data set [1], the LD50 at 336 h was determined as 300 mg/kg. For the same molecule, in data set [2] (setting [4]), the “BP (% change), 2nd day, 6 h” value is given as -21.5%. Further, the “BP (% change) 2nd day, 24 h” value in data set [2] (setting [5]) is given as -23.1%. Also, the “BP (% change), 1st day, 6 h” value in data set [2] (10 mg/kg per os) was -23.1%. Further, the “BP (% change), 1st day, 24 h” value in data set [2] (10 mg/kg per os, 24 h) was -20.5%. Further, in data set [2], the “relation between percentage change” value came to 1.40; the “Th. E. (therapeutic effectiveness) [Serial No. 3 = 1.0]” value is given as 28.7. In data set [2] (Table II, dose 16.5 μmole/kg), the “BP (% change) 2nd day, 24 h” value was -23.1%.

With `NNc1nncc2ccccc12` [Serial No. 3, 1-hydrazinophthalazine, reference compound], the “BP (% change), 1st day, 6 h” value in data set [2] (20 mg/kg per os) is -10.7%. In addition, the “BP (% change), 1st day, 24 h” value in data set [2] (20 mg/kg per os, 24 h) is -1.5%. For the same molecule, the “BP (% change), 2nd day, 6 h” value in data set [2] (20 mg/kg per os, 2nd day) is given as -11.8%. In addition, the “BP (% change) 2nd day, 24 h” value in data set [2] (20 mg/kg per os, 2nd day, 24 h) is reported as -6.1%. For the same molecule, in data set [2], the “relation between percentage change” value is given as 0.0488; the “Th. E. (therapeutic effectiveness) [Serial No. 3 = 1.0]” value came out at 1.0. Besides, the “BP (% change) 2nd day, 24 h” value in data set [2] (Table II, dose 125.0 μmole/kg) was -6.1%.

`CCOC(=O)N1CCc2nnc(NN)c(C)c2C1.Cl` [Serial No. 2, 3-hydrazino-4-methyl-5,6,7,8-tetrahydro-6-pyrido[4,3-c]pyridazine carboxylic acid ethyl ester hydrochloride, reference compound]: the “BP (% change), 1st day, 6 h” value in data set [2] (20 mg/kg per os) is -4.7%. Further, the “BP (% change), 1st day, 24 h” value in data set [2] (20 mg/kg per os, 24 h) was -1.0%. Also, the “BP (% change), 2nd day, 6 h” value in data set [2] (20 mg/kg per os, 2nd day) is given as -4.7%. Moreover, the “BP (% change) 2nd day, 24 h” value in data set [2] (20 mg/kg per os, 2nd day, 24 h) is -3.7%. Further, in data set [2], the “relation between percentage change” value is 0.046; the “Th. E. (therapeutic effectiveness) [Serial No. 3 = 1.0]” value came out at 0.9. Moreover, the “BP (% change) 2nd day, 24 h” value in data set [2] (Table II, dose 79.6 μmole/kg) is listed as -3.7%.
